The source of these data is publication PMC11472313, “Development of Fragment-Based Inhibitors of the Bacterial Deacetylase LpxC with Low Nanomolar Activity” (Journal of Medicinal Chemistry, 2024).

The subject of test [1] is E. coli D22. Description: MIC, broth microdilution. It is filed as cell-based. Particulars: Escherichia coli, 20 h, 37 °C, LB. As for the experimental part: (§1) Besides measuring the inhibitory activities toward E. coli LpxC C63A, the antibacterial activities of the synthesized hydroxamic acids were evaluated by determining their minimal inhibitory concentrations (MIC) in broth dilution tests as well as by performing disc diffusion assays (Table 1).
(§2) The MIC values of the compounds were determined by means of the microdilution method using 96-well plates.
(§3) The overnight suspension was diluted 1:1000 in fresh LB. 10 μL of a 2-fold dilution series of the compounds in DMSO and 90 μL of LB were dispensed to each well of a 96-well plate. Then, 100 μL of the inoculated medium was added, resulting in 5 × 10^5 cfu mL^–1, 5% DMSO, and a final concentration range of the test compounds between 64 and 0.016 μg mL^–1. The plates were incubated for 20 h at 37 °C. The MIC was defined as the lowest concentration of the compounds that prevented visible growth after incubation. Each assay was performed at least three times on separate days.
For orientation: In broth dilution the organism is exposed to a series of concentrations in liquid medium.

For test [2], the system named is E. coli BL21(DE3). Description: MIC, broth microdilution. It is filed as cell-based. Particulars: Escherichia coli, 20 h, 37 °C, LB. As for the experimental part:
as §1, §2, §3

The test system of test [3] is E. coli D22. Put plainly: disc diffusion assay. In kind it is cell-based. Particulars: 0.15 μmol per 6 mm disc. As to the method: as §1
(§4) The disc diffusion assays against E. coli BL21(DE3) and the defective strain E. coli D22 were performed as follows: liquid cultures of the bacteria were grown overnight in lysogeny broth (LB)[73] at 37 °C and 200 rpm. 150 μL of an overnight cell suspension was spread evenly onto LB agar plates. 0.15 μmol of each compound (dissolved in 10 or 15 μL DMSO) were applied onto circular filter paper (Ø = 6 mm, Cytiva). Pure DMSO, serving as a negative control, and CHIR-090, serving as a positive control, were also spotted. The agar plates were incubated overnight at 37 °C, and the diameter of the zone of growth inhibition was measured for each compound. Each assay was performed at least three times on separate days.
(In general: Agar diffusion results depend on both activity and mobility in agar.)

Test [4] has as its system E. coli BL21(DE3). Description: disc diffusion assay. In kind it is cell-based. Particulars: 0.15 μmol per 6 mm disc. As to the method:
as §1, §4

The target in test [5] is T1, E. coli LpxC C63A (Escherichia coli, UniProt P0A725, C63A).
T1 construct: made in house; host or cells: E. coli BL21(DE3)
Put plainly: fluorescence-based E. coli LpxC C63A enzyme inhibition assay. In kind it is biochemical. Particulars: for fold higher LpxC inhibitory activity than its enantiomer (eudysmic ratio): E. coli LpxC C63A, (S) versus (R); for Ki: Ki E. coli LpxC C63A, from IC50 via Cheng–Prusoff. As to the method: In order to determine the inhibitory activities of the compounds of interest toward E. coli LpxC, a fluorescence-based enzyme assay was deployed, in which the formed deacetylated natural product UDP-3-O-[(R)-3-hydroxymyristoyl]glucosamine (2) is transformed into a fluorescent isoindole with o-phthaldialdehyde and 2-mercaptoethanol.[48],[49] […] The KM of E. coli LpxC C63A was determined experimentally using a mass spectrometry-based LpxC assay (Figure S8, Supporting Information, vide infra).
A fluorescence-based microplate assay for LpxC activity was performed as described by Clements et al.[48] The wells in a black, nonbinding, 96-well fluorescence microplate (Greiner Bio One, Frickenhausen) were filled with 93 μL of 26.9 μM UDP-3-O-[(R)-3-hydroxymyristoyl]-N-acetylglucosamine in assay buffer [40 mM sodium morpholinoethanesulfonic acid (pH 6.0), 80 μM dithiothreitol, 0.02% Brij 35]. In order to assay the inhibitors at final concentrations from 20 nM up to 20 μM, 2 μL of a respective dilution of the compounds in DMSO were added. The addition of 5 μL of a solution of purified LpxC (10 μg mL^–1) in assay buffer led to final concentrations of 25 μM UDP-3-O-[(R)-3-hydroxymyristoyl]-N-acetylglucosamine, 15 nM E. coli LpxC C63A, 2% DMSO, and from 20 nM up to 20 μM inhibitor. The microplate was incubated for 30 min at 37 °C in a plate shaker. Then, the biochemical reaction was stopped by adding 40 μL of 0.625 M sodium hydroxide. The reaction mixture was further incubated for 10 min and neutralized by adding 40 μL of 0.625 M acetic acid. The deacetylated product UDP-3-O-[(R)-3-hydroxymyristoyl]glucosamine was converted into a fluorescing isoindole by adding 120 μL of an o-phthaldialdehyde-2-mercaptoethanol solution, which was prepared by dissolving 10 mg of o-phthaldialdehyde in 1 mL of methanol, diluting the mixture with 24 mL of a sodium borate buffer (0.1 M), and finally adding 2.5 μL of 2-mercaptoethanol.[49] Fluorescence was measured with a TriStar^2 S LB 942 plate reader (Berthold, Bad Wildbad) at 340 nm excitation and 460 nm emission wavelengths. Each assay was performed at least three times on separate days. The IC50 values were calculated via Probit-log concentration graphs with the aid of the software Origin and were subsequently converted into Ki values using the Cheng–Prusoff equation.[75],[76]

For test [6], the system named is P. aeruginosa ATCC 27853. Put plainly: disc diffusion assay. Particulars: 0.15 μmol per 6 mm disc. In kind it is cell-based. As for the experimental part:
(§5) In the performed disc diffusion assays, indole derivatives (S)-13h, (S)-13i, and (S)-13j caused promising halos of growth inhibition.
(§6) The disc diffusion assays against E. coli TOP10 (Thermo Fisher, Waltham, USA), E. coli ATCC 35218, K. pneumoniae ATCC 700603, and P. aeruginosa ATCC 27853 were performed as follows: the bacteria were grown overnight on a Columbia blood agar plate (Oxoid, Basingstoke, UK), and one colony was suspended in sterile saline to yield a suspension of 0.5 McFarland standard. Using a sterile swab, the suspension was spread evenly onto Mueller–Hinton agar (Oxoid, Basingstoke, UK). 0.15 μmol of each compound (dissolved in 10 μL DMSO) was applied onto circular 6 mm diameter filter paper disks, which were then placed on the agar. After incubating the agar plates for 20 h at 37 °C, the diameter of the zone of growth inhibition was measured for each compound.

Test [7] concerns E. coli ATCC 35218. Description: disc diffusion assay. It is filed as cell-based. Particulars: 0.15 μmol per 6 mm disc. As to the method: as §5, §6
In test [8] the test system is E. coli TOP10. Description: disc diffusion assay. It is filed as cell-based. Particulars: 0.15 μmol per 6 mm disc. As for the experimental part: as §5, §6
Test [9] has as its system K. pneumoniae ATCC 700603. Description: disc diffusion assay. It is filed as cell-based, Klebsiella pneumoniae. Particulars: 0.15 μmol per 6 mm disc. As to the method: as §5, §6

Structures are written as SMILES. In brackets after ≈: the same amount, converted by molar mass. Several values for one entry are separate records, joined by “and”; a condition that tells them apart may be missing. Equal values may be shown once. Where only a bound is given, the exact number is not on record here.

T1 sequence (P0A725 whole entry C63A): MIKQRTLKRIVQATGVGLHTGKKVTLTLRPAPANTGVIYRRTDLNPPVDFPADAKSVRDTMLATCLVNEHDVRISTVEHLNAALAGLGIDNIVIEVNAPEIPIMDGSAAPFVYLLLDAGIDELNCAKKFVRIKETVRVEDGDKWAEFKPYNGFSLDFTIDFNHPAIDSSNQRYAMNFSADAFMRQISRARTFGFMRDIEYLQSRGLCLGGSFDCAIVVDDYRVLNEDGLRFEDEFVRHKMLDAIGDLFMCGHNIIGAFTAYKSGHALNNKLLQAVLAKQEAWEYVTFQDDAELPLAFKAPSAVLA

As to `O=C(NO)[C@H](COCc1ccccc1)OCc1ccc(C#Cc2ccc(CN3CCOCC3)cc2)cc1` [(S)-11a, (S)-3-(Benzyloxy)-N-hydroxy-2-[(4-{[4-(morpholinomethyl)phenyl]ethynyl}benzyl)oxy]propanamide], in [1], the MIC (as a rule, the lowest concentration that inhibits growth of the organism) worked out at 0.5 µg/mL (≈ 0.999 µM). The same molecule yielded an MIC in test [2] above 32 µg/mL. In addition, in test [3], the “Inhibition zone E. coli D22” value amounted to 15.4 ± 2.4 mm. Also, the “Inhibition zone E. coli BL21(DE3)” value in test [4] is listed as at most 6 mm. In addition, in test [5], the “fold higher LpxC inhibitory activity than its enantiomer (eudysmic ratio)” value amounted to 6 fold and the Ki (usually the equilibrium dissociation constant of an inhibitor or competing ligand from its target) amounted to 606 ± 356 nM.

`O=C(NO)[C@H](CNCc1ccccc1)OCc1ccc(C#Cc2ccc(CN3CCOCC3)cc2)cc1` [(S)-12a, (S)-3-(Benzylamino)-N-hydroxy-2-[(4-{[4-(morpholinomethyl)phenyl]ethynyl}benzyl)oxy]propanamide]: the MIC in test [1] is 0.5 µg/mL (≈ 1 µM); in test [2], 16 µg/mL (≈ 32 µM). The “Inhibition zone E. coli D22” value in test [3] came out at 24.3 ± 2.1 mm. In addition, in [4], the “Inhibition zone E. coli BL21(DE3)” value stood at 13.0 ± 1.0 mm. Also, the Ki in [5] was found to be 4590 ± 1260 nM.

Take `O=C(NC[C@H](OCc1ccc(C#Cc2ccc(CN3CCOCC3)cc2)cc1)C(=O)NO)c1ccccc1` [(S)-13a, (S)-N-{3-(Hydroxyamino)-2-[(4-{[4-(morpholinomethyl)phenyl]ethynyl}benzyl)oxy]-3-oxopropyl}benzamide]: the “Inhibition zone P. aeruginosa ATCC 27853” value in test [6] turned out to be 7.0 ± 1.0 mm. In addition, the “Inhibition zone E. coli ATCC 35218” value in test [7] came to 19.3 ± 0.6 mm. Further, the “Inhibition zone E. coli TOP 10” value in test [8] was 23.3 ± 0.6 mm. Moreover, the MIC in test [1] amounted to 0.13 µg/mL (≈ 0.253 µM). Inhibition of growth in test [2] (MIC) required 8 µg/mL (≈ 15.6 µM). Further, the “Inhibition zone K. pneumoniae ATCC 700603” value in [9] worked out at 7.0 ± 1.0 mm. In test [3], the “Inhibition zone E. coli D22” value is recorded as 26.3 ± 1.5 mm. In addition, the “Inhibition zone E. coli BL21(DE3)” value in test [4] amounted to 15.7 ± 1.6 mm. In [5], the “fold higher LpxC inhibitory activity than its enantiomer (eudysmic ratio)” value was found to be 17 fold; the Ki was 150 nM and 149 nM.

For `O=C(NC[C@H](OCc1ccc(C#Cc2ccc(CN3CCOCC3)cc2)cc1)C(=O)NO)c1cccc(-c2ccccc2)c1` [(S)-13c], the “Inhibition zone P. aeruginosa ATCC 27853” value in [6] was found to be 6.3 ± 0.6 mm. Further, the “Inhibition zone E. coli ATCC 35218” value in test [7] turned out to be 7.7 ± 1.5 mm. Besides, the “Inhibition zone E. coli TOP 10” value in test [8] was determined as 8.0 ± 0 mm. For the same molecule, the MIC in test [1] is 0.13 µg/mL (≈ 0.22 µM); in [2], above 16 µg/mL. In addition, the “Inhibition zone K. pneumoniae ATCC 700603” value in test [9] was below 6 mm. In addition, the “Inhibition zone E. coli D22” value in test [3] was 19.0 ± 1.5 mm. The “Inhibition zone E. coli BL21(DE3)” value in test [4] is listed as at most 6 mm. In addition, the Ki in test [5] is 42 nM and 41.5 nM.

Take `O=C(NC[C@H](OCc1ccc(C#Cc2ccc(CN3CCOCC3)cc2)cc1)C(=O)NO)c1ccc(Oc2ccccc2)cc1` [(S)-13d]: in [6], the “Inhibition zone P. aeruginosa ATCC 27853” value came to 6.3 ± 0.6 mm. Also, the “Inhibition zone E. coli ATCC 35218” value in test [7] amounted to 7.0 ± 1.0 mm. Moreover, the “Inhibition zone E. coli TOP 10” value in test [8] is given as below 6 mm. Also, the MIC is 0.25 µg/mL (≈ 0.413 µM) in test [1] and above 16 µg/mL in test [2]. In addition, the “Inhibition zone K. pneumoniae ATCC 700603” value in test [9] is given as below 6 mm. Moreover, the “Inhibition zone E. coli D22” value in test [3] is 9.3 ± 1.6 mm. For the same molecule, in test [4], the “Inhibition zone E. coli BL21(DE3)” value was at most 6 mm. For the same molecule, the Ki in [5] is 323 ± 126 nM.
